Experimental data from the NIST ThermoML archive (doi:10.1021/je0502501).
± gives the expanded uncertainty stated by the source.

Assay: wn = mass fraction of the nth substance listed
Details: 313 K, 101 kPa, Liquid, Vibrating tube method

mass density (w2 = 6.7e-05): 1358.7 ± 3.6 kg/m3
mass density (w2 = 0.0015): 1357.6 ± 3.6 kg/m3
mass density (w2 = 0.0089): 1347.3 ± 3.6 kg/m3
mass density (w2 = 0.016): 1335.5 ± 3.5 kg/m3
Structure (SMILES): CCCCn1cc[n+](C)c1.F[P-](F)(F)(F)(F)F [1-butyl-3-methylimidazolium hexafluorophosphate] + O
